The target of this assay is PAI-1 (Homo sapiens, UniProt P05121). Nature of the assay: PAI chromogenic substrate assay (first S2251 assay, tPA/plasminogen system). Format: biochemical. As for the experimental part:
In this assay, a compound is incubated with PAI-1 prior to addition to the tPA assay system. Inhibition of PAI-1 results in the production of plasmin from plasminogen. In turn, plasmin cleaves the chromogenic substrate S2251 (Kabi Vitrum) producing pNA (p-nitroaniline) which is detected spectrophotometrically at 405 nm (K. Nilsson et al, Fibrinolysis (1987) 1, 163-168).
Compounds of formula (A) were tested in a PAI chromogenic substrate assay. In the first assay (K. Nilsson, Fibrinolysis (1987) 1, 163-168) each compound was incubated with PAI-1 prior to addition to the tPA assay system. […] In turn, the plasmin cleaved the chromogenic substrate S2251 (Kabi-Vitrum) producing pNA (p-nitroaniline) which was detected spectrophotometrically at 405 nm.

PAI-1, sequence (P05121 24-402): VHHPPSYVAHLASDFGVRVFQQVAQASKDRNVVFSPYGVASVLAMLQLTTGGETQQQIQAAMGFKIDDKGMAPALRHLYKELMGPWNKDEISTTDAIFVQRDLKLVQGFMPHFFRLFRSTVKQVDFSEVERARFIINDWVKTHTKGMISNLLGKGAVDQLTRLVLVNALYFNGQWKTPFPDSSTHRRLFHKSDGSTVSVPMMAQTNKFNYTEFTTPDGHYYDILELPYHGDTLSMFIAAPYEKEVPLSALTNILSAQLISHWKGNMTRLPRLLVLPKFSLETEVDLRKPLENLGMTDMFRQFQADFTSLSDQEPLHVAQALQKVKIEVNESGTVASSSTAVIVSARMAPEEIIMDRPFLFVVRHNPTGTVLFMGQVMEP

In the case of `Nc1ccccc1/C=c1\[nH]c(=O)/c(=C/c2ccccc2)[nH]c1=O` [Compound 39, (3Z,6Z)-3-(2-Aminobenzylidene)-6-benzylidene-2,5-piperazinedione], the Inhibition of PAI-1 in the first S2251 chromogenic substrate assay (Concentration 6.25 μm) turned out to be 0%; the Inhibition of PAI-1 in the first S2251 chromogenic substrate assay (Concentration 12.5 μm) worked out at 1%; the Inhibition of PAI-1 in the first S2251 chromogenic substrate assay (Concentration 25 μm) is 1%; the Inhibition of PAI-1 in the first S2251 chromogenic substrate assay (Concentration 50 μm) worked out at 20%; the Inhibition of PAI-1 in the first S2251 chromogenic substrate assay (Concentration 100 μm) came to 67%.

Regarding `CC(=O)Nc1ccc(/C=c2\[nH]c(=O)/c(=C/c3c(Cl)cccc3Cl)[nH]c2=O)cc1` [Compound 40, (3Z,6Z)-3-(4-Acetamidobenzylidene)-6-(2,6-dichlorobenzylidene)-2,5-piperazinedione], the Inhibition of PAI-1 in the first S2251 chromogenic substrate assay came out at 1% (Concentration 6.25 μm); 4% (Concentration 12.5 μm); 23% (Concentration 25 μm); 61% (Concentration 50 μm); 61% (Concentration 100 μm).

`COc1ccc(/C=c2\[nH]c(=O)/c(=C/c3ccc(N(C)C(C)=O)cc3)[nH]c2=O)cc1` [Compound 41, (3Z,6Z)-3-(4-Methoxybenzylidene)-6-(4-N-methylacetamidobenzylidene)-2,5-piperazinedione]: the Inhibition of PAI-1 in the first S2251 chromogenic substrate assay (Concentration 6.25 μm) worked out at 3%; the Inhibition of PAI-1 in the first S2251 chromogenic substrate assay (Concentration 12.5 μm) turned out to be 8%; the Inhibition of PAI-1 in the first S2251 chromogenic substrate assay (Concentration 25 μm) was determined as 32%; the Inhibition of PAI-1 in the first S2251 chromogenic substrate assay (Concentration 50 μm) was 45%; the Inhibition of PAI-1 in the first S2251 chromogenic substrate assay (Concentration 100 μm) came to 51%.

Take `CC(=O)Nc1ccc(/C=c2\[nH]c(=O)/c(=C/c3ccc(Cl)cc3)[nH]c2=O)cc1` [Compound 42, (3Z,6Z)-3-(4-Acetamidobenzylidene)-6-(4-chlorobenzylidene)-2,5-piperazinedione]: the Inhibition of PAI-1 in the first S2251 chromogenic substrate assay by setting is: (Concentration 3.75 μm) 1%; (Concentration 7.5 μm) 4%; (Concentration 15 μm) 59%; (Concentration 30 μm) 57%; (Concentration 60 μm) 58%.

Molecule `CC(=O)OCc1ccc(/C=c2\[nH]c(=O)/c(=C/c3ccccc3)[nH]c2=O)cc1` [Compound 43, (3Z,6Z)-3-(4-Acetoxymethylbenzylidene)-6-benzylidene-2,5-piperazinedione] yielded an Inhibition of PAI-1 in the first S2251 chromogenic substrate assay (Concentration 6.25 μm) of 1%; an Inhibition of PAI-1 in the first S2251 chromogenic substrate assay (Concentration 12.5 μm) of 1%; an Inhibition of PAI-1 in the first S2251 chromogenic substrate assay (Concentration 25 μm) of 3%; an Inhibition of PAI-1 in the first S2251 chromogenic substrate assay (Concentration 50 μm) of 45%; an Inhibition of PAI-1 in the first S2251 chromogenic substrate assay (Concentration 100 μm) of 59%.

Take `CC(=O)NCc1ccc(/C=c2\[nH]c(=O)/c(=C/c3ccccc3)[nH]c2=O)cc1` [Compound 44, (3Z,6Z)-3-(4-Acetamidomethylbenzylidene)-6-benzylidene-2,5-piperazinedione]: the Inhibition of PAI-1 in the first S2251 chromogenic substrate assay runs as follows: (Concentration 6.25 μm) 1%; (Concentration 12.5 μm) 1%; (Concentration 25 μm) 1%; (Concentration 50 μm) 2%; (Concentration 100 μm) 51%.

`O=c1[nH]/c(=C\c2ccccc2)c(=O)[nH]/c1=C\c1ccccc1` [Compound 45, (3Z,6Z)-3,6-Dibenzylidene-2,5-piperazinedione] registered an Inhibition of PAI-1 in the first S2251 chromogenic substrate assay (Concentration 12.5 μm) of 1%, an Inhibition of PAI-1 in the first S2251 chromogenic substrate assay (Concentration 25 μm) of 1%, an Inhibition of PAI-1 in the first S2251 chromogenic substrate assay (Concentration 50 μm) of 13% and an Inhibition of PAI-1 in the first S2251 chromogenic substrate assay (Concentration 100 μm) of 53%.

As for `COc1ccc(/C=c2\[nH]c(=O)/c(=C/c3ccc(S(C)(=O)=O)cc3)[nH]c2=O)cc1` [Compound 46, (3Z,6Z)-3-(4-Methoxybenzylidene)-6-(4-methylsulfonylbenzylidene)-2,5-piperazinedione], the Inhibition of PAI-1 in the first S2251 chromogenic substrate assay reads like this: (Concentration 12.5 μm) 14%; (Concentration 25 μm) 38%; (Concentration 50 μm) 42%; (Concentration 100 μm) 39%.

`CCCCOc1ccc(/C=c2\[nH]c(=O)/c(=C/c3ccc(OC)cc3)[nH]c2=O)cc1` [Compound 47, (3Z,6Z)-3-(4-Butoxybenzylidene)-6-(4-methoxybenzylidene)-2,5-piperazinedione]: the Inhibition of PAI-1 in the first S2251 chromogenic substrate assay runs as follows: (Concentration 12.5 μm) 14%; (Concentration 25 μm) 14%; (Concentration 50 μm) 58%; (Concentration 100 μm) 75%.

As to `CCCCOc1ccc(/C=c2\[nH]c(=O)/c(=C/c3ccccc3)[nH]c2=O)cc1` [Compound 48, (3Z,6Z)-6-Benzylidene-3-(4-butoxybenzylidene)-2,5-piperazinedione], the Inhibition of PAI-1 in the first S2251 chromogenic substrate assay by setting is: (Concentration 12.5 μm) 3%; (Concentration 25 μm) 26%; (Concentration 50 μm) 57%; (Concentration 100 μm) 73%.

Take `COc1ccc(/C=c2\[nH]c(=O)/c(=C/c3ccc(OC(C)C)cc3)[nH]c2=O)cc1` [Compound 49, (3Z,6Z)-3-(4-isopropoxybenzylidene)-6-(4-methoxybenzylidene)-2,5-piperazinedione]: the Inhibition of PAI-1 in the first S2251 chromogenic substrate assay runs as follows: (Concentration 12.5 μm) 1%; (Concentration 25 μm) 8%; (Concentration 50 μm) 47%; (Concentration 100 μm) 60%.

Regarding `COc1ccc(/C=c2\[nH]c(=O)/c(=C/c3ccc(C(C)(C)C)cc3)[nH]c2=O)cc1` [Compound 50, (3Z,6Z)-3-(4-methoxybenzylidene)-6-(4-tert-butylbenzylidene)-2,5-piperazinedione], the Inhibition of PAI-1 in the first S2251 chromogenic substrate assay came to 2% (Concentration 12.5 μm), 22% (Concentration 25 μm), 37% (Concentration 50 μm) and 62% (Concentration 100 μm).

For the molecule `CC(C)(C)c1ccc(/C=c2\[nH]c(=O)/c(=C/c3ccccc3)[nH]c2=O)cc1` [Compound 51, (3Z,6Z)-6-Benzylidene-3-(4-tert-butylbenzylidene)-2,5-piperazinedione], the Inhibition of PAI-1 in the first S2251 chromogenic substrate assay runs as follows: (Concentration 12.5 μm) 5%; (Concentration 25 μm) 38%; (Concentration 50 μm) 61%; (Concentration 100 μm) 79%.

As for `CC(C)Oc1ccc(/C=c2\[nH]c(=O)/c(=C/c3ccccc3)[nH]c2=O)cc1` [Compound 52, (3Z,6Z)-6-Benzylidene-3-(4-isopropoxybenzylidene)-2,5-piperazinedione], the Inhibition of PAI-1 in the first S2251 chromogenic substrate assay runs as follows: (Concentration 12.5 μm) 2%; (Concentration 25 μm) 15%; (Concentration 50 μm) 45%; (Concentration 100 μm) 68%.
